{
  "source": "patent US7732185B2",
  "about": "“Plasmid having response to dioxins, transgenic cell for measuring dioxins, dioxins sensing method and biosensor using the same” (priority 2004, dated 2010)",
  "format_in_all_cases": "cell-based, mouse",
  "key": {"[1]": {"tested_on": "aryl hydrocarbon receptor (AhR)", "assay": "DRESSA method: SEAP protein activity in conditioned medium of HeDS cells", "settings": "for induction of SEAP protein activity compared with DMSO control: HeDS cells stimulated by 1 μM", "procedure": "Each cell clump is treated with trypsin to be removed, transferred to a 96-well culture plate every two wells, and cultured for one week continuously (S5). After the cells become confluent, the culture medium of each well is exchanged with 100 μl of α-MEM containing 1% FBS, and the cells are cultured for 24 hours in the presence or absence of 10 pM TCDD. Then, using 5 μl of the conditioned medium, a predetermined SEAP assay is performed to establish HeDS cells that react with a low concentration of dioxin with the highest sensitivity, and the cells are used for a dioxins sensing bioassay (S6). In this specification, the bioassay method is referred to as DRE-based Sensing of dioxin via Secreted Alkaline phosphatase (hereinafter, abbreviated as the DRESSA method).\nFurther, AhR14 forms a complex with Arnt15 that is a coactivator, enters the nuclear, and is combined with MMTV-DRE11 to activate. As a result, transcription of downstream SEAP gene 12 is promoted, messenger RNA 16 is produced and translated to protein 18 with ribosome 17, and the protein is promptly secreted outside the cell as a SEAP protein. Accordingly, by measuring the activity of the SEAP protein in the conditioned medium, it is possible to determine a level of dioxins to which the cells are exposed. First, HeDS cells with a concentration of 2×10^4/well are seeded in each well of a 96-well culture plate. As a culture medium, 100 μl of A-MEM containing […] is filled into each well (S1). After the cells are cultured for 24 hours to be fixed to the bottom of each well, the culture medium is exchanged, and 1 μl of a liquid sample containing TCDD is added (S2). After culturing for 24 hours, the conditioned medium is sampled every 5 μl (S3), and the SEAP protein activity is measured by procedures as described below.\n(§1) The SEAP protein activity in the conditioned medium is determined as described below. To 5 μl of the conditioned medium is added 15 μl of buffer, the resultant is incubated at 65° C. for 30 minutes, and endogenous alkaline phosphatase activity is inactivated. Added further is 20 μl of buffer containing L-homoarginine that is an inhibitor of endogenous alkaline phosphatase, and the resultant is kept standing for 5 minutes. Then, 15 μl of substrate CSPD is added thereto, the resultant is kept standing at a dark place for 30 minutes, and the degree of chemical emission is measured by a luminometer."}, "[2]": {"tested_on": "aryl hydrocarbon receptor (AhR)", "assay": "SEAP reporter plasmid comparison of sensor sequences (DRE, MMTV-DRE, MMTV) in Hepa-1c1c7 cells stimulated by TCDD", "procedure": "SEAP reporter plasmids having MMTV-DRE or only DRE as a sensor sequence were prepared, and each of the plasmids was gene-introduced to a Hepa-1c1c7 cell. In addition, details of gene introduction will be described later. The cells were stimulated by TCDD, and increases in SEAP activity were compared. In the cell to which was introduced the SEAP reporter plasmid only having DRE as a sensor sequence, the SEAP activity increased by 4.5 times by the stimulus of TCDD.\nIn contrast thereto, in the cell (Hepa 1c1c7-DRE-SEAP cell, hereinafter, referred to as an HeDS cell) to which was introduced the SEAP reporter plasmid having MMTV-DRE as a sensor sequence, the SEAP activity increased by 43.2 times by the stimulus of TCDD. […] This means that the sequence of MMTV strongly amplifies the response of DRE to dioxin. The high reactivity of MMTV-DRE enables a fast assay with low cost.\nas §1"}, "[3]": {"tested_on": "aryl hydrocarbon receptor (AhR)", "assay": "fast DRESSA method: floating HeDS cells, SEAP protein activity in conditioned medium", "procedure": "as §1\nIn order to perform the above-mentioned DRESSA method easily and economically in a short time, it is possible to simplify the sensing procedures as described above, as shown in FIG. 1a. In other words, 50 μl of the culture medium containing 1 μl of sample is filled into each well of a 96-well culture plate, and immediately, HeDS cells floated in the culture medium are added (total 100 μl) (S1).\nThe conditioned medium is sampled three to four hours later (S2), and the SEAP protein activity is measured (S3). By using this scheme, it is possible to sense 1 pM of TCDD regarded as the sensing limit of the current method within four to five hours. Hereinafter, this method is referred to as a fast DRESSA method. The fast DRESSA method has no difference in sensing sensitivity from the DRESSA method."}},
  "data": [
    {"compound": "c1ccc2c(c1)cc1ccc3cccc4ccc2c1c34", "note": "[B[a]P, benzo[a]pyrene]", "values": [
      {"measurement": "induction of SEAP protein activity compared with DMSO control", "setting": "[1]", "result": "remarkable induction"}
    ]},
    {"compound": "Cc1ccc2cc3c(ccc4ccccc43)c3c2c1CC3", "note": "[3-MC, 3-methylcholanthrene]", "values": [
      {"measurement": "induction of SEAP protein activity compared with DMSO control", "setting": "[1]", "result": "remarkable induction"}
    ]},
    {"compound": "Clc1cc2c(cc1Cl)Oc1cc(Cl)c(Cl)cc1O2", "note": "[TCDD, 2,3,7,8-tetrachlorodibenzo-p-dioxin]", "values": [
      {"measurement": "increase in SEAP activity by the stimulus of TCDD", "setting": "[2]; HeDS cell: SEAP reporter plasmid having MMTV-DRE as sensor sequence", "result": 43.2, "unit": "times"},
      {"measurement": "increase in SEAP activity by the stimulus of TCDD", "setting": "[2]; Hepa-1c1c7 cell with SEAP reporter plasmid only having DRE as sensor sequence", "result": 4.5, "unit": "times"},
      {"measurement": "increase in SEAP activity by the stimulus of TCDD", "setting": "[2]; cell with SEAP reporter plasmid only having MMTV as sensor sequence", "result": "did not increase"},
      {"measurement": "time after addition at which significant increases in SEAP protein activity are observed", "setting": "[1]; 6 pM TCDD, DMSO control, traced up to 10 hours", "result": "four"},
      {"measurement": "sensing with a reduced number of cells", "setting": "[1]; 1 nM TCDD, 50 cells in one well of a 96-well plate", "result": "can be sensed sufficiently"},
      {"measurement": "concentration of TCDD possible to sense", "setting": "[1]; 5,000 HeDS cells", "result": 0.5, "unit": "pM"},
      {"measurement": "concentration at which significant increases in SEAP protein activity were already observed", "setting": "[1]; HeDS cells exposed to 0 to 1 pM TCDD", "result": 0.25, "unit": "pM"},
      {"measurement": "concentration up to which SEAP protein activity increases dependent on the concentration", "setting": "[1]; HeDS cells, culture medium", "result": "up to 100 pM"},
      {"measurement": "time for which increases in SEAP protein activity continued before reaching equilibrium", "setting": "[1]; TCDD stimulation, traced up to 72 hours", "result": 48, "unit": "h"},
      {"measurement": "time after addition at which significant increases in SEAP protein activity were already observed", "setting": "[3]; 6 pM TCDD", "result": "three"},
      {"measurement": "time after addition at which significant increases in SEAP protein activity were already observed", "setting": "[3]; 1 nM TCDD", "result": "three"},
      {"measurement": "concentration of TCDD possible to sense", "setting": "[3]; within four to five hours", "result": 1, "unit": "pM"}
    ]},
    {"compound": "O=c1cc(-c2ccccc2)oc2ccc3ccccc3c12", "note": "[βNF, β-naphthoflavone]", "values": [
      {"measurement": "induction of SEAP protein activity compared with DMSO control", "setting": "[1]", "result": "remarkable induction"}
    ]}
  ]
}
